{
  "source": "ChEMBL document CHEMBL5053530",
  "about": "“Neopetrosidines A-D, pyridine alkaloids isolated from the marine sponge Neopetrosia chaliniformis and their cell cycle elongation activity” (Bioorg Med Chem, 2021)",
  "key": {"[1]": {"assay": "Induction of cell cycle duration in human HeLa/Fucci2 cells assessed as increase in G1 phase duration at 5 uM measured every 20 mins for 96 hrs by time-lapse imaging analysis (reference value: 5 +/- 0.8 hrs)", "format": "functional"}, "HeLa/Fucci2 [2]": {"test_system": "HeLa/Fucci2", "assay": "Induction of cell cycle duration in human HeLa/Fucci2 cells assessed as increase in G1/S phase duration measured every 20 mins for 96 hrs by time-lapse imaging analysis", "format": "functional, cell-based", "conditions": "dose 1.25-10 µM"}, "[3]": {"assay": "Induction of cell cycle duration in human HeLa/Fucci2 cells assessed as increase in G1/S phase duration at 5 uM measured every 20 mins for 96 hrs by time-lapse imaging analysis (reference value: 4.8 +/- 0.3 hrs)", "format": "functional"}, "HeLa/Fucci2 [4]": {"test_system": "HeLa/Fucci2", "assay": "Induction of cell cycle duration in human HeLa/Fucci2 cells assessed as increase in G1 phase duration measured every 20 mins for 96 hrs by time-lapse imaging analysis", "format": "functional, cell-based", "conditions": "dose 1.25-10 µM"}, "HeLa/Fucci2 [5]": {"test_system": "HeLa/Fucci2", "assay": "Cytotoxicity against human HeLa/Fucci2 cells assessed as reduction in cell growth measured after 3 days by MTT assay", "format": "functional, cell-based", "conditions": "HeLa/Fucci2, 72 h"}, "[6]": {"assay": "Induction of cell cycle duration in human HeLa/Fucci2 cells assessed as increase in S/G2/M phase duration at 5 uM measured every 20 mins for 96 hrs by time-lapse imaging analysis (reference value: 7.1 +/- 0.7 hrs)", "format": "functional"}, "[7]": {"assay": "Effect on glycolysis in human HeLa/Fucci2 cells assessed as increase in lactate production per ug protein at 5 uM incubated for 24 hrs by LDH Assay (reference value: 19.6 +/- 6.2 nmol)", "format": "functional"}, "HeLa/Fucci2 [8]": {"test_system": "HeLa/Fucci2", "assay": "Induction of cell cycle duration in human HeLa/Fucci2 cells assessed as increase in S/G2/M phase duration measured every 20 mins for 96 hrs by time-lapse imaging analysis", "format": "functional, cell-based", "conditions": "dose […]"}, "HeLa/Fucci2 [9]": {"test_system": "HeLa/Fucci2", "assay": "Antiproliferative activity against human HeLa/Fucci2 cells reduction in cellular ATP production incubated for 4 hrs by CellTiter-Glo cell viability assay", "format": "functional, cell-based", "conditions": "dose 1.3-5 µM"}, "HeLa": {"test_system": "HeLa", "assay": "Induction of mitochondria membrane potential loss in human HeLa cells at 5 uM measured after 1 hr by JC1 dye based fluorescence microscopic analysis", "format": "functional, cell-based"}, "HeLa/Fucci2 [10]": {"test_system": "HeLa/Fucci2", "assay": "Antiproliferative activity against human HeLa/Fucci2 cells assessed as reduction in cell viability incubated for 48 hrs under glucose-limiting condition by LDH assay", "format": "functional, cell-based"}, "[11]": {"assay": "Effect on glycolysis in human HeLa/Fucci2 cells assessed as increase in lactate production per ug protein at 0.1 uM incubated for 24 hrs by LDH Assay (reference value: 19.6 +/- 6.2 nmol)", "format": "functional"}},
  "note": "The source made the active and inactive calls. The rule behind the calls is not given here.",
  "data": [
    {"smiles": "C1=C\\CCCCCC[n+]2cccc(c2)CCCCCCCCCCCCCC[n+]2cccc(c2)CCCCCC/1.O=C[O-].O=C[O-]", "values": [
      {"measurement": "Time", "setting": "[1]", "value": 12, "unit": "h"},
      {"measurement": "Activity", "setting": "HeLa/Fucci2 [2]", "value": "Dose-dependent effect"},
      {"measurement": "Time", "setting": "[3]", "value": 9.3, "unit": "h"},
      {"measurement": "Activity", "setting": "HeLa/Fucci2 [4]", "value": "Dose-dependent effect"},
      {"measurement": "IC50", "setting": "HeLa/Fucci2 [5]", "value": 1200, "unit": "nM"},
      {"measurement": "Time", "setting": "[6]", "value": 14.7, "unit": "h"},
      {"measurement": "Activity", "setting": "[7]", "value": 27.9, "unit": "nmol"},
      {"measurement": "Activity", "setting": "HeLa/Fucci2 [8]", "value": "Dose-dependent effect"},
      {"measurement": "Activity", "setting": "HeLa/Fucci2 [9]", "value": "Dose-dependent effect"},
      {"measurement": "Activity", "setting": "HeLa", "value": "Active"},
      {"measurement": "Activity", "setting": "HeLa/Fucci2 [10]", "value": "Active"}
    ]},
    {"smiles": "C1=C\\CCCCCCc2ccc[n+](c2)CCCCCC/C=C\\CCCCCCc2ccc[n+](c2)CCCCCCCC/1", "values": [
      {"measurement": "IC50", "setting": "HeLa/Fucci2 [5]", "value": 2600, "unit": "nM"}
    ]},
    {"smiles": "C=C(C)[C@H]1Cc2c(ccc3c2O[C@@H]2COc4cc(OC)c(OC)cc4[C@@H]2C3=O)O1", "note": "[ROTENONE]", "values": [
      {"measurement": "Activity", "setting": "[11]", "value": 34.5, "unit": "nmol"}
    ]},
    {"smiles": "C1=C\\CCCCCC[n+]2cccc(c2)CCCCCC/C=C\\CCCCCC[n+]2cccc(c2)CCCCCC/1", "values": [
      {"measurement": "IC50", "setting": "HeLa/Fucci2 [5]", "value": 2400, "unit": "nM"}
    ]},
    {"smiles": "C1=C\\CCCCCC[n+]2cccc(c2)CCCCCC/C=C\\CCCCCC[n+]2cccc(c2)CCCCCCCC/1", "values": [
      {"measurement": "IC50", "setting": "HeLa/Fucci2 [5]", "value": 2600, "unit": "nM"}
    ]}
  ]
}
